Measured values published in PMC10245146, “CNS4 causes subtype‐specific changes in agonist efficacy and reversal potential of permeant cations in NMDA receptors” (Pharmacology Research & Perspectives, 2023).
Several values for one entry are separate records, joined by “and”; a condition that tells them apart may be missing. Equal entries are not always repeated.

Legend:
Assay type in all cases: cell-based
GluN1/2B NMDA receptors = biological target: T1, GluN1/2B NMDA receptors (Rattus norvegicus, UniProt P35439+Q00960); test: TEVC agonist dose-response, Xenopus oocytes expressing 1/2B; settings: with 30 μM CNS4
T1 construct: SEP (super-ecliptic pHluorin; printed only as 'sep' in the plasmid name); host or cells: Xenopus oocytes (cRNA injection)
T1 sequence (Q00960 27-1482, other chains not shown): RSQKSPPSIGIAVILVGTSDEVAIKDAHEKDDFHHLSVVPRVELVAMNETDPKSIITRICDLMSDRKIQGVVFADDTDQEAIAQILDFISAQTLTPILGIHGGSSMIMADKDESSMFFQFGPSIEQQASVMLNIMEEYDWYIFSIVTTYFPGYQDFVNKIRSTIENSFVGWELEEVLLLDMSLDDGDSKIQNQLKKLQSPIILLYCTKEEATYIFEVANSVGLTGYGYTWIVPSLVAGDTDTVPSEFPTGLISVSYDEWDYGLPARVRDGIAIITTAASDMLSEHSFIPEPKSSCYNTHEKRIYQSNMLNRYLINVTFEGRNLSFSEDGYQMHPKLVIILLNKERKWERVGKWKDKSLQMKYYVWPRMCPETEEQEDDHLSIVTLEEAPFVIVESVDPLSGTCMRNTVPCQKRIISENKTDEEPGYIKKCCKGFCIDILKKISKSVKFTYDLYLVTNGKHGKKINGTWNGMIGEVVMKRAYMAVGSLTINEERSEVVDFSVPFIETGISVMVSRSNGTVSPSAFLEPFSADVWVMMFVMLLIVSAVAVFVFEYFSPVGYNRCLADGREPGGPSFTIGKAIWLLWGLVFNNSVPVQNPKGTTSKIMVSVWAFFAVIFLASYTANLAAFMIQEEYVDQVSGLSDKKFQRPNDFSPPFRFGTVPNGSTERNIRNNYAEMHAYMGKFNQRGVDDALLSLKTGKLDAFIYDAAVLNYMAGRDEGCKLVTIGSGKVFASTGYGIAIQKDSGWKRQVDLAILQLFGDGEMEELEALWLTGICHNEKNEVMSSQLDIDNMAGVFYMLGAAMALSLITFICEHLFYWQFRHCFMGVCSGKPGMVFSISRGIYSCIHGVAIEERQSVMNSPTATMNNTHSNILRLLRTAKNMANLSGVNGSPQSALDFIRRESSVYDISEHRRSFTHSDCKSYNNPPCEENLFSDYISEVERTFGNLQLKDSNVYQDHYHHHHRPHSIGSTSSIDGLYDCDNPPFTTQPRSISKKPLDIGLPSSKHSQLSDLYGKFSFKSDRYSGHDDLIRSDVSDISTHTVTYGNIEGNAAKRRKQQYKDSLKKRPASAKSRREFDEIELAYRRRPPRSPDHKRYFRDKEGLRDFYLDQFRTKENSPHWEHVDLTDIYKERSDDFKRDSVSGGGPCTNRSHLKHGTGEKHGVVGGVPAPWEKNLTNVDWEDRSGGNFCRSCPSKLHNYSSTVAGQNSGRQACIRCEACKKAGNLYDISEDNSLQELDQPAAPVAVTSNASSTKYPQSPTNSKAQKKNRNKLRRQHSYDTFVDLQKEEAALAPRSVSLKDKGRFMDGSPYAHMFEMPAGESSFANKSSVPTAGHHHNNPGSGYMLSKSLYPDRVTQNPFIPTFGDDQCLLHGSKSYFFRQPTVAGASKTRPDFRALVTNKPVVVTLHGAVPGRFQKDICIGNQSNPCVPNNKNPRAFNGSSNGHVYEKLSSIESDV
From the text: NMDA receptor constructs: cDNA encoding the NMDA receptor1a subunit (GluN1a) was obtained from Dr. Nakanishi (Kyoto, Japan). cDNA encoding the GluN2B (pci_sepGluN2B), originally developed in the Malinow lab,[33] was purchased from Addgene (cat# 23998), Cambridge, MA. cDNA encoding the GluN2C and GluN2D were purchased from GenScript, New Jersey, USA. Mutated GluN1, 2A and 2B cDNA constructs capable of assembling as GluN1/2A/2B triheteromeric (1/2AB) receptors[34] were obtained from Dr. Paoletti (Laboratoire de Neurobiologie, CNRS). These constructs have been previously tested for 1/2AB receptor activity of GluN1/2A receptor‐selective potentiators.[35] […]
Electrophysiological responses were measured using a standard two‐microelectrode voltage‐clamp workstation (Warner Instruments model OC‐725C) designed to provide a fast clamp of large cells. […] Response magnitude was determined in Xenopus oocytes expressing different NMDA receptor subunits (GluN1/2A, 1/2B, 1/2C, 1/2D, and 1/2A/2B) by the steady plateau response elicited by bath application of different agonist concentrations. […] Statistical significance was determined at the overall alpha level 0.05, using appropriate statistical methods as described in all figure captions. […]

[1] = system: GluN1/2A/2B triheteromeric (1/2AB) NMDA receptors; test: TEVC agonist dose-response, Xenopus oocytes expressing 1/2AB
From the text: (§1) NMDA receptor constructs: cDNA encoding the NMDA receptor1a subunit (GluN1a) was obtained from Dr. Nakanishi (Kyoto, Japan). cDNA encoding the GluN2B (pci_sepGluN2B), originally developed in the Malinow lab,[33] was purchased from Addgene (cat# 23998), Cambridge, MA. cDNA encoding the GluN2C and GluN2D were purchased from GenScript, New Jersey, USA. Mutated GluN1, 2A and 2B cDNA constructs capable of assembling as GluN1/2A/2B triheteromeric (1/2AB) receptors[34] were obtained from Dr. Paoletti (Laboratoire de Neurobiologie, CNRS). These constructs have been previously tested for 1/2AB receptor activity of GluN1/2A receptor‐selective potentiators.[35] […] Plasmids were linearized with NotI (GluN1a and all five GluN1 mutants) or Avrll (GluN2B), or BstB1 (GluN2C and GluN2D) and transcribed in vitro with T7 (GluN1a, GluN1/2A, GluN2B, GluN2C & GluN2D), and SP6 (GluN1 mutants) RNA polymerase using the mMessage mMachine transcription kits (Invitrogen by Thermo Fisher Scientific).
(§2) Stage IV frog oocytes were obtained from Xenopus‐I, (Ann Arbor, MI, USA). NMDA receptor subunit cRNAs were suspended in nuclease free sterile water. GluN1A, GluN2B, GluN2C, GluN2D and GluN1/2A/2B cRNAs were mixed in a ratio of 1:1–3. 50 nL of the final cRNA mixture was microinjected (40–70 ng total) into the oocyte cytoplasm. Oocytes were incubated in ND‐96 solution at 18°C prior to electrophysiological recordings (2–5 days).
(§3) Electrophysiological responses were measured using a standard two‐microelectrode voltage‐clamp workstation (Warner Instruments model OC‐725C) designed to provide a fast clamp of large cells. The recording buffer contained 116 mM NaCl, 2 mM KCl, 0.3 mM BaCl2, and 5 mM HEPES, pH 7.4. Response magnitude was determined in Xenopus oocytes expressing different NMDA receptor subunits (GluN1/2A, 1/2B, 1/2C, 1/2D, and 1/2A/2B) by the steady plateau response elicited by bath application of different agonist concentrations. […] All data points were obtained from the steady state currents unless stated otherwise. Dose–response relationships were fit to an appropriate curve‐fitting equation using GraphPad Prism‐7. Non‐linear regression was used to calculate EC50, IC50, and fold change or percentage maximal response. Curves were fit using the following equations as performed in the previous studies, [37]: Y=100/1+10^LogEC50−XorY=Bottom+Top−Bottom/1+10^LogEC50−X . Statistical significance was determined at the overall alpha level 0.05, using appropriate statistical methods as described in all figure captions. Technical and biological replicates are explicitly mentioned in each figure legend, as n = X (Y). X represents technical repeats (number of traces) and Y represents biological repeats (number of oocytes or HEK293T cells studied). […]

GluN1/2C NMDA receptors = biological target: T2, GluN1/2C NMDA receptors (UniProt P35439+Q14957); test: TEVC agonist dose-response, Xenopus oocytes expressing 1/2C
T2 construct: host or cells: Xenopus oocytes (cRNA injection)
T2 sequence (Q14957 20-1233, other chains not shown): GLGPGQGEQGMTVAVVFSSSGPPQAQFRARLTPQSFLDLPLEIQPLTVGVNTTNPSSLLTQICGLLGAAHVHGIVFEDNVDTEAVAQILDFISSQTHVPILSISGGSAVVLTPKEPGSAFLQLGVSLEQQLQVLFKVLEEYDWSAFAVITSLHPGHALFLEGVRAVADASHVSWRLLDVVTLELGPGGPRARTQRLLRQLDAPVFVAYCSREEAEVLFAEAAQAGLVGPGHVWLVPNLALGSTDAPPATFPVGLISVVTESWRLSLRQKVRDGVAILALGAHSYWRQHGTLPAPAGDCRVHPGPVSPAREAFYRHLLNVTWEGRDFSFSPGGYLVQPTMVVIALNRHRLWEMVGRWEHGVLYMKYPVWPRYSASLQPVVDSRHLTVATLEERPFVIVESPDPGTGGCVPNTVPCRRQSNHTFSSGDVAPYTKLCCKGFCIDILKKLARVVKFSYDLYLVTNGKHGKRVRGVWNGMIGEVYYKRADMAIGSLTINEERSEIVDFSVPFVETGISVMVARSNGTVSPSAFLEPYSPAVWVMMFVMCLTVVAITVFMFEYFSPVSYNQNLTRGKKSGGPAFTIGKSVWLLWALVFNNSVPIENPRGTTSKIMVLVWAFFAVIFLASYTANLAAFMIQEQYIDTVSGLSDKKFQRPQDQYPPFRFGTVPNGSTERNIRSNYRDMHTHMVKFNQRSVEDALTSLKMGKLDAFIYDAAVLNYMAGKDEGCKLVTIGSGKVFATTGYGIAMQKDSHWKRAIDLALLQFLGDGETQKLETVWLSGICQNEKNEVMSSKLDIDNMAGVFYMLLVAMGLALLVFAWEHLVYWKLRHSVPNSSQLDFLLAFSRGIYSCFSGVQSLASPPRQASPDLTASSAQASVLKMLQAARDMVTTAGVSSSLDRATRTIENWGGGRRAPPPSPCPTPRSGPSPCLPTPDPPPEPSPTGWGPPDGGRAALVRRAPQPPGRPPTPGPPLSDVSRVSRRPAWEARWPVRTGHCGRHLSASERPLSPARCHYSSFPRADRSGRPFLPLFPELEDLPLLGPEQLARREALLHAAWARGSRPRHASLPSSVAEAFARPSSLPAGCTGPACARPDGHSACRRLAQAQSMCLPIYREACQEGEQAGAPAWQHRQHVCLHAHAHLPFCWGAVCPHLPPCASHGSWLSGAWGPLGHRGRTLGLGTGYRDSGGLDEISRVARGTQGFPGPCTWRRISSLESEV
From the text: as §1, §2, §3

GluN1/2D NMDA receptors [2] = biological target: T3, GluN1/2D NMDA receptors (UniProt O15399+P35439); test: TEVC agonist dose-response, Xenopus oocytes expressing 1/2D
T3 construct: host or cells: Xenopus oocytes (cRNA injection)
T3 sequence (O15399 28-1336, other chains not shown): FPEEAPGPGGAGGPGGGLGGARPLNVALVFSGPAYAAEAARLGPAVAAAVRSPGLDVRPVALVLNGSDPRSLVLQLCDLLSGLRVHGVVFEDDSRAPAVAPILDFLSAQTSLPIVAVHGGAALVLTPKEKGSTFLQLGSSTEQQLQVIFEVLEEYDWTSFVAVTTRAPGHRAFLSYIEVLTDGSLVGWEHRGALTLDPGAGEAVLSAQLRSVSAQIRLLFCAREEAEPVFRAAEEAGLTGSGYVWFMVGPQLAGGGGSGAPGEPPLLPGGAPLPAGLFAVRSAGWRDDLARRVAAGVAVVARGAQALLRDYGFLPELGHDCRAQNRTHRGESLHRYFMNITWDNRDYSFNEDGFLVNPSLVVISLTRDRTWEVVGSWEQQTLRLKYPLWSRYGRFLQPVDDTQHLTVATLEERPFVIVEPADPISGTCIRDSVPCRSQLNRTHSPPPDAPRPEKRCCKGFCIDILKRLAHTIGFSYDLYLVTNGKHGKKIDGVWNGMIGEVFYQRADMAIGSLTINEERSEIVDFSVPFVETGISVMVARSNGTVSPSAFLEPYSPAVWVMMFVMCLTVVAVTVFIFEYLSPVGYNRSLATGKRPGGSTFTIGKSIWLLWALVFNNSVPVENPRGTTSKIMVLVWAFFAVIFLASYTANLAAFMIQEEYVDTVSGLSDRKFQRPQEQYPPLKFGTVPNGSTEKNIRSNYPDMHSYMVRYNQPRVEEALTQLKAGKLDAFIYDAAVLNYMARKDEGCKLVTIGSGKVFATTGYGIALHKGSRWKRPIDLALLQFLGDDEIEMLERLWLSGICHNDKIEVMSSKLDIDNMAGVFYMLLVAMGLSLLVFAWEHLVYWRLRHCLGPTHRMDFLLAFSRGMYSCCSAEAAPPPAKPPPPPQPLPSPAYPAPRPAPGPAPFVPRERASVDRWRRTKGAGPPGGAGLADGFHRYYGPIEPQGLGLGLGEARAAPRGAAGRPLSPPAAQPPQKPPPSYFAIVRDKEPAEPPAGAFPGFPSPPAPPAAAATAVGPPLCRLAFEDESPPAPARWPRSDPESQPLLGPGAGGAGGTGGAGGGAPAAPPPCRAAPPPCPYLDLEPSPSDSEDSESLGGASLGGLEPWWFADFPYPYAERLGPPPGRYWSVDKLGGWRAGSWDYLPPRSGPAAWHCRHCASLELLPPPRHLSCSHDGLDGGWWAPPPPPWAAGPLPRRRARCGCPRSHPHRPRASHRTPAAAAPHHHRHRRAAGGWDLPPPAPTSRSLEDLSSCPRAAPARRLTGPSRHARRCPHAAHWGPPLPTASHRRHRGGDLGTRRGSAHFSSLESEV
From the text: as §1, §2, §3

GluN1/2D NMDA receptors [3] = biological target: T3, GluN1/2D NMDA receptors; test: Current-voltage (I-V) relationship, Xenopus oocytes expressing 1/2D; settings: for Difference in reversal potential (∆Erev) between W and WO CNS4: 100 μM CNS4; for Reversal potential (Erev): with 100 μM CNS4
Method: There are two sets of recording solutions used for the I‐V assay: solutions with normal (1) and low (2) Ca^2+ concentrations. The normal Ca^2+ solutions contained (mM): 115 NaCl, 1 KCl, 1.8 CaCl2, 10 HEPES. PH was adjusted to 7.2. Low calcium solutions contained 0.018 mM CaCl2 and other components were the same as normal Ca^2+ solution. To study the effects of CNS4 in the absence of extracellular Na^+, NaCl was replaced with impermeable agent, N‐methyl‐D‐glucamine (NMDG, […]). HCl was used to dissolve the NMDG and to adjust the PH to 7.2. NMDG‐containing solutions are termed Nafree. […] There were four different agonist solutions used for each set of Ca^2+ recordings: (1) Agonist, (2) Agonist+CNS4, (3) Agonist in Nafree solution, (4) Agonist+CNS4 in Nafree solution. Each solution was applied to the oocytes in sequential order and the same order was followed for all I‐V recordings. Low Ca^2+ experiments were carried out in the same way as normal Ca^2+ experiments, except that they had 0.018 mM Ca^2+ in all four agonist and recording solutions. Steady state current responses evoked by these solutions at each voltage step were measured. Reversal potentials (Erev) were obtained from x‐intercept values when y = 0 after fitting the I‐V data using a third order polynomial, non‐linear curve fitting equation Y=B0+B1^*X+B2^*X^2+B3^*X^3 . Erev obtained from each oocyte with different agonists were compared in a pairwise manner. These differences were then averaged. Paired or unpaired student t‐test was performed to compare the data as mentioned in each figure legend.
FIGURE 6 Effect on CNS4 on agonist induced current directions in 1/2D receptors. Current –Voltage (I‐V) relationship of 1/2D receptors was studied with normal (A) and low (B) CaCl2 containing extracellular solutions. […] Dark and light green circles indicate normal and low CaCl2 experiments, respectively. (C) Comparison of reversal potentials values. Dark and light red squares indicate equivalent I‐V experiments with NMDG (Nafree). Dotted and thick lines denote the absence (empty circles or squares) and presence (filled circles or squares) of 100 μM CNS4, respectively. Traces (Ai&ii, Bi&ii) represent the current response at −90 mv. N = 4 (4) & n = 7(7) for normal & low Ca^2+ assays respectively. Erev obtained from each oocyte with different agonists were compared in a pairwise manner. Paired student t‐test was performed to compare the data presented at Ci. Unpaired student's t‐test was performed to compare the difference in reversal potentials (triangles). *p < .05.

For O=C(NC(=S)N1CCCCC1c1cccnc1)c1ccc(F)cc1 (centres unmarked) [CNS4], the “Glycine efficacy: relative fold change in current at highest glycine concentration” value (“Glycine efficacy: relative fold change” below) (GluN1/2B NMDA receptors; 100 μM glutamate constant, relative to 1 μM glycine, p = .0303) was 0.88 ± 0.07 fold, the “Glutamate efficacy: relative fold change in current at highest glutamate concentration” value (“Glutamate efficacy: relative fold change” for short) (GluN1/2B NMDA receptors; 100 μM glycine constant, relative to 1 μM glutamate, p = .5104) was 4.27 ± 0.82 fold and the “Reduction in glutamate efficacy with vs without CNS4” value ([1]; 30 μM CNS4) was 5.3 fold. For the same compound, the “Glycine efficacy: relative fold change” value ([1]; with 30 μM CNS4, 100 μM glutamate constant, relative to 1 μM glycine, p = .0019) was 1.37 ± 0.08 fold, the “Glutamate efficacy: relative fold change” value ([1]; with 30 μM CNS4, 100 μM glycine constant, relative to 1 μM glutamate, p = .0001) was 2.79 ± 0.43 fold and the “Increase in glycine efficacy with vs without CNS4” value (GluN1/2C NMDA receptors; 30 μM CNS4) was 1.8 fold. For the same compound, the “Reduction in glutamate efficacy with vs without CNS4” value (GluN1/2C NMDA receptors; 30 μM CNS4) was 2.1 fold, the “Glycine efficacy: relative fold change” value (GluN1/2C NMDA receptors; with 30 μM CNS4, 100 μM glutamate constant, relative to 100 nM glycine, p = .0015) was 1.77 ± 0.20 fold and the “Glutamate efficacy: relative fold change” value (GluN1/2C NMDA receptors; with 30 μM CNS4, 100 μM glycine constant, relative to 100 nM glutamate, p = .0001) was 3.93 ± 0.43 fold. For the same compound, the “Effect on glutamate efficacy with vs without CNS4 (insignificant)” value (GluN1/2D NMDA receptors [2]; 30 μM CNS4) was 0.8 fold, the “Increase in glycine efficacy with vs without CNS4” value (GluN1/2D NMDA receptors [2]; 30 μM CNS4, 10 μM glycine) was 1.89 fold and 1.9 fold and the “Glycine efficacy: relative fold change” value (GluN1/2D NMDA receptors [2]; with 30 μM CNS4, 10 μM glycine, 100 μM glutamate constant, relative to 100 nM glycine, p = .0014) was 2.04 ± 0.19 fold. The “Glutamate efficacy: relative fold change” value (GluN1/2D NMDA receptors [2]; with 30 μM CNS4, 100 μM glycine constant, relative to 100 nM glutamate, p = .1735) was 6.90 ± 0.62 fold, the “Difference in reversal potential (∆Erev) between W and WO CNS4” value (from here on “Difference in reversal potential”) (GluN1/2D NMDA receptors [3]; low Ca2+, Nafree, n = 6) was −6.22 ± 4.08 mV and the “Difference in reversal potential” value (GluN1/2D NMDA receptors [3]; low Ca2+, with Na+, n = 7) was −26.55 ± 7.66 mV. For the same compound, the “Difference in reversal potential” value (GluN1/2D NMDA receptors [3]; normal Ca2+, Nafree, n = 4) was −2.21 ± 2.14 mV, the “Difference in reversal potential” value (GluN1/2D NMDA receptors [3]; normal Ca2+, with Na+, n = 4) was −0.22 ± 2.08 mV and the “Reversal potential (Erev)” value (GluN1/2D NMDA receptors [3]; low Ca2+, with Na+, without CNS4 ‐44.02 ± 6.04, p = .013) was −70.57 ± 6.44 mV. The “Reversal potential (Erev)” value (GluN1/2D NMDA receptors [3]; normal Ca2+, Nafree, without CNS4 −77.99 ± 1.77, p = .378) was −80.20 ± 2.54 mV and the “Reversal potential (Erev)” value (GluN1/2D NMDA receptors [3]; normal Ca2+, with Na+, without CNS4 −61.43 ± 5.26, p = .919) was −61.66 ± 5.55 mV.
